The series in a line: clinical. The following applies: human, in vivo, po.

One may read the fraction unbound as the share of the substance not bound to proteins or other matrix.

The molecule `Nc1nc2ccc(OC(F)(F)F)cc2s1` [RILUZOLE] gave an unbound share (fraction unbound) of 0.04.

The values above are taken from ChEMBL document CHEMBL3832083.
